# Literature values as cited in patent US20030171329A1, “Stable compositions comprising tezacitabine” (priority 2002, published 2003).
# Read-outs that look alike come from different tables or passages of the source.
# Experiments:
# [1] = cited from earlier work
# [2] = tested on: replicating strand of DNA; details: incorporated directly into the replicating strand of DNA; cited from earlier work
# ribonucleotide reductase = target: T1, ribonucleotide reductase (Homo sapiens, UniProt P23921); details: cited from earlier work
# T1 sequence (P23921 1-792): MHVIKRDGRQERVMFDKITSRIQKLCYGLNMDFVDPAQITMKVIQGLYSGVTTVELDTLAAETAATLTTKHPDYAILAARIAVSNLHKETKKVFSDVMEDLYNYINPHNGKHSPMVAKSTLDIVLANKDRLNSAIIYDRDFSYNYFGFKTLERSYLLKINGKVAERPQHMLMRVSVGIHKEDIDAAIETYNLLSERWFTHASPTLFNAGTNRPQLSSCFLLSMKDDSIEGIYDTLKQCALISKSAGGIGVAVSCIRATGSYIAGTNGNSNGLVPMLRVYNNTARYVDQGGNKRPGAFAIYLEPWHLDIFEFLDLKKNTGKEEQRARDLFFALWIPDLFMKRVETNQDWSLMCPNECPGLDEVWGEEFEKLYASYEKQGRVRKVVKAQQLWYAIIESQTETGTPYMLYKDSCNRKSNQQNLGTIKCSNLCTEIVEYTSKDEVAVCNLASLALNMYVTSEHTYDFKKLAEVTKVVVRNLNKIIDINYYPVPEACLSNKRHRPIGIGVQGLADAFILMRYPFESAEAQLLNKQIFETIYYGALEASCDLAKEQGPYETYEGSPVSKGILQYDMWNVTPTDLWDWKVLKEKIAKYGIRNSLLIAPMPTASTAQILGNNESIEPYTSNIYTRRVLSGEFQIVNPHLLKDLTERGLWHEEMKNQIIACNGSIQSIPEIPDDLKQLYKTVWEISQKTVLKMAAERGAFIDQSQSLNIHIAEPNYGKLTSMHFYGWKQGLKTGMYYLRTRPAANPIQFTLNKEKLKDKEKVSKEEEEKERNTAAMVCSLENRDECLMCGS
# T1 sequence (P31350 1-389 partner): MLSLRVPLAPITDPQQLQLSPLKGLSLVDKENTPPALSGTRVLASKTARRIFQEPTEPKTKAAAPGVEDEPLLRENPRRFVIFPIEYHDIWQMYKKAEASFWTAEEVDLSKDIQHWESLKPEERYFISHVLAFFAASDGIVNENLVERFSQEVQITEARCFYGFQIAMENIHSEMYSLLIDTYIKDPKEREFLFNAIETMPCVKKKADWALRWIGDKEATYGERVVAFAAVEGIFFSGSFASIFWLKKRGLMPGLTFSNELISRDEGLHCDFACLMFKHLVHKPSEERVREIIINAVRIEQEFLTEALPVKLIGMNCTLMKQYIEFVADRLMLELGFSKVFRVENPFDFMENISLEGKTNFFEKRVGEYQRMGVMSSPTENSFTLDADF
smiles,measurement,setting,value
Nc1ccn([C@@H]2O[C@H](CO)[C@@H](O)C2(F)F)c(=O)n1 [Gemcitabine],stability in words,[1]; acid conditions (low pH),relatively stable
same,stability in words,[1]; high pH,considerably less stable
Nc1ccn(C2OC(COP(=O)(O)OP(=O)(O)OP(=O)(O)O)C(O)C2=CF)c(=O)n1 (centres unmarked) [tezacitabine triphosphate],effect on DNA synthesis,[2],causes premature chain termination
Nc1ccn(C2OC(COP(=O)(O)OP(=O)(O)O)C(O)C2=CF)c(=O)n1 (centres unmarked) [tezacitabine diphosphate],effect on ribonucleotide reductase,ribonucleotide reductase,inhibits ribonucleotide reductase
Nc1ccn([C@@H]2O[C@H](CO)[C@@H](O)[C@@H]2O)c(=O)n1 [Cytarabine],pH of best stability,[1]; aqueous solution,most stable at neutral pH (7-8)
